Experimental data from patent US9688671B2, “Metalloenzyme inhibitor compounds” (Viamet Pharmaceuticals, Inc., priority 2013, dated 2017).
≈ marks a conversion by molar mass, not a printed value.

Legend:
A. fumigatus = A. fumigatus MIC (CLSI M38-A2); details: Aspergillus fumigatus, read-out: Aspergillus MIC (Aspergillus fumigatus MIC50)
C. albicans = experiment: Minimum Inhibitory Concentration (MIC), C. albicans growth inhibition (CLSI M27-A2); assay type: cell-based; details: Candida albicans; about 50% growth reduction; approximately 48 h at 35±1° C.; RPMI+MOPS
Protocol: Compounds were assessed for their ability to inhibit the growth of common strains of fungus, C. albicans using a standardized procedure (CLSI M27-A2). Stock solutions of the test compounds and standards were prepared in DMSO at 1600 μg/mL (C. albicans). Eleven, serial, one-half dilutions of compounds were prepared in 96-well plates in RPMI+MOPS. The assay concentration ranges were 1-0.001 μg/mL (C. albicans). Cell suspensions of C. albicans were prepared and added to each well at concentrations of approximately 3.7×10^3 colony-forming-units per milliliter (cfu/mL). All testing was in duplicate. The inoculated plates were incubated for approximately 48 h at 35±1° C. At the completion of incubation the wells of each plate were evaluated visually for the presence of fungal growth. […] For voriconazole the MIC was the concentration which reduced C. albicans growth by 50% (per CLSI, M27-A2). For QC purposes C. krusei isolate ATCC 6258 (4.0×10^3 cfu/mL) was included in the VOR assay.

Coccidioides posadasii = experiment: microbe, parasite or virus in culture; assay type: cell-based; details: 48 h

Row | Structure (SMILES) | MIC50 (A. fumigatus) | MIC50 (C. albicans) | MIC50 (Coccidioides posadasii)
1 | N#Cc1ccc(CC(=O)c2ccc(C#Cc3ccc(C(F)(F)C(O)(Cn4cnnn4)c4ccc(F)cc4F)nc3)cc2)cc1 (racemic) [Example 1, 4-(2-(4-((6-(2-(2,4-difluorophenyl)-1,1-difluoro-2-hydroxy-3-(1H-tetrazol-1-yl)propyl)pyridin-3-yl)ethynyl)phenyl)-2-oxoethyl)benzonitrile] | 0.5 µg/mL (≈ 0.838 µM) | 0.004 µg/mL (≈ 0.00671 µM) | –
2 | N#Cc1ccc(NCc2ccc(C#Cc3ccc(C(F)(F)C(O)(Cn4cnnn4)c4ccc(F)cc4F)nc3)cc2)cc1 (racemic) [Example 2, 4-(4-((6-(2-(2,4-difluorophenyl)-1,1-difluoro-2-hydroxy-3-(1H-tetrazol-1-yl)propyl)pyridin-3-yl)ethynyl)benzylamino)benzonitrile] | 1 µg/mL (≈ 1.71 µM) | 0.016 µg/mL (≈ 0.0274 µM) | –
3 | OC(Cn1cnnn1)(c1ccc(F)cc1F)C(F)(F)c1ccc(C#Cc2ccc(OCc3ccc(C(F)(F)F)s3)cc2)cn1 (racemic) [Example 5, 2-(2,4-difluorophenyl)-1,1-difluoro-3-(1H-tetrazol-1-yl)-1-(5-((4-((5-(trifluoromethyl)thiophen-2-yl)methoxy)phenyl)ethynyl)pyridin-2-yl)propan-2-ol] | – | – | 0.12 µg/mL (≈ 0.189 µM)
4 | OC(Cn1cnnn1)(c1ccc(F)cc1F)C(F)(F)c1ccc(C#Cc2ccc(OCc3ccc(F)s3)cc2)cn1 (racemic) [Example 6, 2-(2,4-difluorophenyl)-1,1-difluoro-1-(5-((4-((5-fluorothiophen-2-yl)methoxy)phenyl)ethynyl)pyridin-2-yl)-3-(1H-tetrazol-1-yl)propan-2-ol] | 0.5 µg/mL (≈ 0.857 µM) | 0.008 µg/mL (≈ 0.0137 µM) | –
5 | OC(Cn1cnnn1)(c1ccc(F)cc1F)C(F)(F)c1ccc(C#Cc2ccc(CNc3ccc(Cl)cc3)cc2)cn1 (racemic) [Example 7, 1-(5-((4-((4-chlorophenylamino)methyl)phenyl)ethynyl)pyridin-2-yl)-2-(2,4-difluorophenyl)-1,1-difluoro-3-(1H-tetrazol-1-yl)propan-2-ol] | – | – | 0.12 µg/mL (≈ 0.202 µM)
6 | OC(Cn1cnnn1)(c1ccc(F)cc1F)C(F)(F)c1ccc(C#Cc2ccc(CNc3ccc(F)cc3)cc2)cn1 (racemic) [Example 8, 2-(2,4-difluorophenyl)-1,1-difluoro-1-(5-((4-((4-fluorophenylamino)methyl)phenyl)ethynyl)pyridin-2-yl)-3-(1H-tetrazol-1-yl)propan-2-ol] | 0.5 µg/mL (≈ 0.867 µM) | 0.004 µg/mL (≈ 0.00694 µM) | –
7 | CN(C)Cc1ccc(COc2ccc(C#Cc3ccc(C(F)(F)C(O)(Cn4cnnn4)c4ccc(F)cc4F)nc3)cc2)cc1 (racemic) [Example 11, 2-(2,4-difluorophenyl)-1-(5-((4-(4-((dimethylamino)methyl)benzyloxy)phenyl)ethynyl)pyridin-2-yl)-1,1-difluoro-3-(1H-tetrazol-1-yl)propan-2-ol] | 0.5 µg/mL (≈ 0.811 µM) | 0.016 µg/mL (≈ 0.0259 µM) | –
8 | OC(Cn1cnnn1)(c1ccc(F)cc1F)C(F)(F)c1ccc(C#Cc2ccc(OCc3ccc(Cn4cccn4)cc3)cc2)cn1 (racemic) [Example 13] | 0.25 µg/mL (≈ 0.391 µM) | 0.016 µg/mL (≈ 0.025 µM) | –
9 | C[C@@H](c1ncncc1F)[C@](O)(Cn1cncn1)c1ccc(F)cc1F [Voriconazole, voriconazole, reference compound] | 0.25 µg/mL (≈ 0.716 µM) | 0.016 µg/mL (≈ 0.0458 µM) | –
